Measurements: publication PMC10891803, “Seleno-Warfare against Cancer: Decoding Antitumor Activity of Novel Acylselenoureas and Se-Acylisoselenoureas” (Pharmaceutics, 2024)

Key:
[1] = test system: MDA-MB-231; assay: MTT cell viability assay, MDA-MB-231; type: cell-based, human; conditions: for percentage of cell growth, MDA-MB-231: 10 µM, MTT screening (Figure S1); for percentage of cell growth, MDA-MB-231 / IC50: 48 h; for IC50: Homo sapiens, MDA-MB-231, MTT, mean ± SD of three experiments, read-out: IC50 MDA-MB-231 (Breast); for Selectivity index (SI): IC50 184-B5/IC50 MDA-MB-231
Description: (§1) The cell lines were purchased from the American Type Culture Collection (ATCC). The four tumor cell lines used were as follows: MDA-MB-231 (triple-negative breast cancer), HTB-54 (lung cancer), DU-145 (prostate cancer), and HCT-116 (colon cancer), and the non-tumoral cell line 185-B5 (mammary tissue) were grown in Roswell Park Memorial Institute (RPMI) 1640 medium culture (Thermo Scientific, USA), supplemented with 10% fetal bovine serum (FBS) (Thermo Scientific, USA) and 1% of antibiotics (10,000 units/mL penicillin and 10 mg/mL streptomycin (Thermo Scientific, USA)). Cells were preserved in tissue culture flasks at 37 °C and 5% CO2. The culture medium was replaced every two to three days.
(§2) Cell viability was determined using the MTT colorimetric assay. A total of 10,000 cells were seeded in each well in a 96-well plate for 24 h. Then, cells were incubated with the corresponding concentration of each tested compound and with DMSO (1%) as control for 48 h. Each compound was dissolved in DMSO at a stock concentration of 0.01 M. Firstly, each compound was tested at 2 concentrations (10 µM and 50 µM) in four human tumoral cell lines MDA-MB-231, HTB-54, DU-145, and HCT-116. Serial dilutions from stock concentration with culture medium were prepared. […] The cell viability was determined by the addition of 20 µL of MTT and its incubation for 2.5 h. Later, the culture medium was removed, and 50 µL of DMSO was added to dissolve formazan crystals. The absorbance was measured at 550 nm. Inhibitory concentration 50 (IC50) and selectivity index (SI) were calculated. Three different experiments were performed independently.
(§3) Cell viability results are expressed as the mean ± standard deviation (SD), and experiments were independently performed thrice in triplicates. IC50 values were determined using a non-linear curve regression analysis calculated by OriginPro 9.0 software.

[2] = test system: HTB-54; assay: MTT cell viability assay, HTB-54; type: cell-based, human; conditions: 48 h; for percentage of cell growth, HTB-54: 10 µM, MTT screening (Figure S1); for IC50: Homo sapiens, HTB-54, MTT, mean ± SD of three experiments, read-out: IC50 HTB-54 (Lung)
Description: as §1, §2, §3

[3] = test system: HCT-116; assay: MTT cell viability assay, HCT-116; type: cell-based, human; conditions: 10 µM, 48 h, MTT screening (Figure S1)
Description: as §1, §2, §3

[4] = test system: DU-145; assay: MTT cell viability assay, DU-145; type: cell-based, human; conditions: 48 h; for percentage of cell growth, DU-145: 10 µM, MTT screening (Figure S1); for IC50: Homo sapiens, DU-145, MTT, mean ± SD of three experiments, read-out: IC50 DU-145 (Prostate)
Description: as §1, §2, §3

[5] = test system: MDA-MB-231, HTB-54, DU-145, and HCT-116; assay: MTT initial screening in four tumor cell lines; type: cell-based; conditions: Homo sapiens, in at least three cell lines, 48 h, read-out: cell growth inhibition
Description: as §2

[6] = test system: 184-B5; assay: MTT cell viability assay, non-malignant 184-B5; type: cell-based; conditions: Homo sapiens, 48 h, mean ± SD of three experiments, read-out: IC50 184-B5 (Breast, non-tumoral)
Description: as §1, §2, §3

| Compound | melting point | percentage of cell growth, MDA-MB-231 [1] | percentage of cell growth, HTB-54 [2] | percentage of cell growth, HCT-116 [3] | percentage of cell growth, DU-145 [4] | IC50 [1] | Selectivity index (SI) [1] | inhibition at 10 µM [5] | IC50 [2] | IC50 [4] | IC50 [6] |
| --- | --- | --- | --- | --- | --- | --- | --- | --- | --- | --- | --- |
| CC(C)N=C(NC(C)C)[Se]C(=O)c1cccs1 [Compound 6] | 120 to 122 °C | 124.62% | 111.26% | 122.83% | 124.09% | – | – | – | – | – | – |
| CC(=O)Oc1ccccc1C(=O)NC(=[Se])NC(C)C [Compound 16] | 75 to 77 °C | 24.61% | -0.98% | 86.98% | -67.79% | 10.2 ± 13.6 µM | 2.17 | > 50% | 23 ± 23.5 µM | 11.4 ± 3.07 µM | 22.2 ± 3.41 µM |
| CC(C)NC(=[Se])NC(=O)c1ccc2c(c1)OCO2 [Compound 19] | – | -45.41% | -4.52% | 97.76% | -82.75% | 12.7 ± 10.8 µM | 2.89 | > 50% | 21.9 ± 9.1 µM | 5.13 ± 0.02 µM | 36.8 ± 14.5 µM |
| O=C(/C=C/c1ccccc1)[Se]C(=NC1CCCCC1)NC1CCCCC1 [Compound 2] | 156 to 158 °C | -19.52% | 74.82% | 120.40% | 118.17% | – | – | – | – | – | – |
| CC(C)N=C(NC(C)C)[Se]C(=O)c1ccccc1 [Compound 3] | 163 to 165 °C | 129.19% | 109.68% | 119.69% | 149.27% | – | – | – | – | – | – |
| CC(C)N=C(NC(C)C)[Se]C(=O)Cc1cccs1 [Compound 5] | 108 to 110 °C | 115.35% | 92.05% | 139.96% | 143.58% | – | – | – | – | – | – |
| O=C(/C=C/c1ccccc1)NC(=[Se])NC1CCCCC1 [Compound 11] | 140 to 142 °C | 71.20% | 57.39% | 103.12% | 50.53% | – | – | – | – | – | – |
| O=C(/C=C/c1ccc2c(c1)OCO2)NC(=[Se])NC1CCCCC1 [Compound 14] | 149 to 151 °C | 83.89% | 44.98% | 101.60% | 10.32% | – | – | – | – | – | – |
| O=C(NC(=[Se])NC1CCCCC1)c1ccccc1 [Compound 8] | 71 to 73 °C | 15.90% | -18.34% | 104.00% | -90.24% | 17.4 ± 5.09 µM | 1.55 | > 50% | 14.6 ± 1.11 µM | 8.83 ± 0.16 µM | 27 ± 5.2 µM |
| CC(C)N=C(NC(C)C)[Se]C(=O)c1ccc2c(c1)OCO2 [Compound 7] | 138 to 140 °C | 119.84% | 108.33% | 105.51% | 131.68% | – | – | – | – | – | – |
| CC(C)NC(=[Se])NC(=O)/C=C/c1ccccc1 [Compound 18] | – | 65.14% | 57.40% | 75.78% | 15.40% | – | – | – | – | – | – |
| CC(C)NC(=[Se])NC(=O)/C=C/c1ccc2c(c1)OCO2 [Compound 21] | 172 to 174 °C | -6.05% | 27.21% | 89.57% | 76.50% | – | – | – | – | – | – |
| O=C(NC(=[Se])NC1CCCCC1)c1ccc2c(c1)OCO2 [Compound 12] | 117 to 119 °C | -7.07% | -34.26% | 76.40% | -74.14% | 30.7 ± 2.31 µM | 1.28 | > 50% | 10.7 ± 13.7 µM | 5.22 ± 0.13 µM | 39.3 ± 18.4 µM |
| CC(C)NC(=[Se])NC(=O)/C=C/c1cccs1 [Compound 20] | 148 to 149 °C | 65.39% | 38.63% | 109.34% | -13.89% | – | – | – | – | – | – |
| O=C(NC(=[Se])NC1CCCCC1)c1cccs1 [Compound 10] | 64 to 66 °C | 107.48% | -25.90% | 122.54% | -82.64% | 10.1 ± 0.25 µM | 4.83 | > 50% | 10.1 ± 4.88 µM | 5.18 ± 0.19 µM | 49 ± 39.2 µM |
| CC(=O)Oc1ccccc1C(=O)NC(=[Se])NC1CCCCC1 [Compound 9] | 79 to 81 °C | 1.88% | -7.60% | 117.25% | -44.19% | 10.2 ± 0.29 µM | 1.11 | > 50% | 29.8 ± 22.5 µM | 8.76 ± 2.13 µM | 11.4 ± 18 µM |
| CC(C)NC(=[Se])NC(=O)c1ccccc1O [Compound 22] | 162 to 164 °C | 73.13% | 3.08% | 80.19% | -6.12% | – | – | – | – | – | – |
| CC(C)NC(=[Se])NC(=O)c1cccs1 [Compound 17] | 120 to 122 °C | 20.49% | -22.97% | 115.35% | -72.56% | 10.2 ± 0.39 µM | 4.15 | > 50% | 5.09 ± 0.34 µM | 5.12 ± 0.07 µM | 42.2 ± 11.4 µM |
| O=C(/C=C/c1cccs1)NC(=[Se])NC1CCCCC1 [Compound 13] | – | -21.69% | 39.11% | 145.89% | 52.85% | – | – | – | – | – | – |
